Measurements from patent US20250332119A1, “NOVEL ANTI-INFLAMMATORY COMPOSITION AND USE THEREOF” (ASK CO., LTD., priority 2023, published 2025).

What was measured:
TNF-α = TNF-α mRNA expression by Realtime qRT-PCR in LPS-induced macrophages; assay type: cell-based, mouse; details: RAW264.7, LPS 24 hours
Description: (§1) To evaluate the inhibitory ability against inflammatory cytokines induced by LPS (lipopolysaccharide), mouse macrophages were used to assess the effect on the production of IL-1α and TNF-α, which are the early-stage inflammatory molecules. The cells used in the experiment were RAW264.7 (Mouse macrophage), which were cultured at 37° C. under 5% CO2 in Dulbecco's modified Eagle's medium (DMEM, Invitrogen) supplemented with 10% fetal bovine serum (FBS, Lonza) and 50 μg/mL streptomycin (Sigma).
(§2) Specifically, the cells were seeded into 6-well plates at a density of 1×10^6 cells/well and cultured at 37° C. in a 5% CO2 incubator for 24 hours. After removing the culture medium, the cells were replaced with fresh medium containing the sample and pre-incubated at 37° C. under 5% CO2 for 30 minutes. Following pretreatment with the sample for 30 minutes, the cells were exposed with LPS for 24 hours to induce an inflammatory response. As a control, cells treated with LPS alone, without sample treatment, were used.
(§3) Total RNA in cells was then extracted from cultured cells using Trizol reagent (Invitrogen, USA) for RNA analysis. The purity and integrity of the RNA were confirmed by measuring the A260 nm/A280 nm ratio, and RNA yield was measured by absorbance at 260 nm.
(§4) For cDNA synthesis, 3 μg of total RNA was mixed with Oligo dT 15 (500 ng/μL) primer, dNTP (10 mM), RTase inhibitor (40 U/μL), and Powerscript II RTase (Clontech, USA), followed by primer annealing at 25° C. for 10 minutes, cDNA synthesis at 42° C. for 60 minutes, and RTase denaturation at 95° C. for 5 minutes. PCR was performed to amplify IL-1α, TNF-α, and GAPDH from cDNA by mixing 3 μL of cDNA, 5 μL of 10×taq polymerase buffer, 2 μL of 10 mM dNTP, 2 μL each of 10 pmol primers, and 0.5 μL of taq polymerase, followed by the addition of distilled water to a final volume of 50 μL.
(§5) The primer sequences used are shown in Table 1, and the PCR process was carried out using the Real-time qRT PCR method with the LightCycler® 96 System (Roche Diagnostics).

[1] = tested on: TNF-α, IL-6, IL-1B, and NOS2; details: Food Funct. 2017; 8 (11): 4150-4158; cited from earlier work
[2] = tested on: RAW264.7 (mouse macrophage); test: NO production in LPS-induced mouse macrophages (Griess reagent); assay type: cell-based; details: RAW264.7, LPS 1 μg/mL, 24 hours, sample pretreatment 30 minutes, non-cytotoxic concentration range
Description: (§6) To evaluate the inhibitory ability against nitric oxide and PGE2 production induced by LPS (lipopolysaccharide), mouse macrophages were used to assess the effect on the production of nitric oxide (NO) and prostaglandin E2 (PGE2). The cells used in the experiment were RAW264.7 (mouse macrophage), which were cultured in Dulbecco's modified Eagle's medium (DMEM, Invitrogen) supplemented with 10% fetal bovine serum (FBS, Lonza) and 50 μg/mL streptomycin (Sigma) at 37° C. in 5% CO2.
Specifically, the cells were seeded into 96-well plates at a density of 1× 10^5 cells/well and incubated at 37° C. in a 5% CO2 incubator for 24 hours. The culture medium was removed from the cultured cells, and the medium was replaced with a fresh medium containing the test sample and the cells pre-incubated at 37° C. under 5% CO2 for 30 minutes. Following the 30-minute incubation, LPS was added to a final concentration of 1 μg/mL, and the cells were incubated at 37° C. in a 5% CO2 incubator for 24 hours. After incubation, 100 μL of the supernatant was transferred to a new 96-well plate and mixed with an equal volume of a 1:1 mixture of Griess reagent A and B, then 100 μL aliquot of the resulting mixture was dispensed into each well. Immediately after treatment with Griess reagent, absorbance was measured at 540 nm using a microplate reader. The NO production rate (%) of macrophages was calculated using Equation 1 below.

IL-1α = IL-1α mRNA expression by Realtime qRT-PCR in LPS-induced macrophages; assay type: cell-based, mouse; details: RAW264.7, LPS 24 hours
Description: as §1, §2, §3, §4, §5

macrophages = details: Food Funct. 2017; 8 (11): 4150-4158; cited from earlier work
[3] = tested on: RAW264.7 (mouse macrophage); test: PGE2 production in LPS-induced mouse macrophages (ELISA); assay type: cell-based; details: RAW264.7, LPS, 24 hours
Description: as §6
In addition, to evaluate the production of PGE2, a procedure similar to that described above was followed. The procedures for treating the cells with the sample and LPS after cell culture were identical. Subsequently, 100 μL aliquots of the supernatant were collected and transferred to a new 96-well plate, and diluted 10- to 20-fold with culture medium. In the NSB (Non-specific binding) wells of the Anti-Mouse IgG plate, 100 μL of culture medium was added. Then, 100 μL each of the standard and diluted supernatant were added to the respective wells, followed by 50 μL of blue PGE2-AP conjugate added to all wells except the blank well. 50 μL of culture medium was added to the NSB wells, and 50 μL of yellow PGE2 antibody was added to all wells except the blank and NSB wells. The plate was then shaken using an orbital shaker at 500 rpm for 2 hours at room temperature (22-25° C.). After 2 hours, the contents of the plate were discarded, and the wells were washed three times with 400 μL of washing buffer. Then, 200 μL of substrate solution was added to each well and the plate was incubated at room temperature (22-25° C.) for 45 minutes. After incubation, 50 μL of stop solution was added to each well, and the absorbance was immediately measured at 405 nm using a microplate reader. The PGE2 production rate (%) of macrophages was calculated using Equations 2 and 3 below.

[4] = tested on: human breast carcinoma cells (MCF-7); details: Planta Med. 2011; 77 (2): 164-8; cited from earlier work
skeletal muscle cells = details: J Biotechnol. 2023; 368:53-59; cited from earlier work

CCCCC/C=C\C/C=C\CCCCCCCC(=O)O [Assay-5, linoleic acid]
Relative TNF-α mRNA expression (TNF-α): did not inhibit TNF-α mRNA expression | expression of proinflammatory cytokines [1]: suppressing the expression of proinflammatory cytokines including TNF-α, IL-6, IL-1B, and NOS2 | NO production [2]: relatively high NO reduction at the lowest concentrations | Relative IL-1α mRNA expression (IL-1α): tendency toward decreased IL-1α mRNA expression with increasing concentration | NO production in macrophages (macrophages): inhibiting NO production in macrophages | PGE2 production [3]: increase in PGE2 production with increasing concentration | PGE2 production ([3]; listed as linoleic acid): increased the production of the inflammatory factor PGE2 as its concentration increased

C=CC(O)C#CC#CC(O)/C=C\CCCCC (centres unmarked) [Assay-10, (9Z)-1,9-pentadecadiene-4,6-diyne-3,8-diol]
growth of human breast carcinoma cells (MCF-7) [4]: inhibit the growth of human breast carcinoma cells (MCF-7) | Relative TNF-α mRNA expression (TNF-α): tendency toward decreased expression of both IL-1α and TNF-α mRNA with increasing concentration | Relative TNF-α mRNA expression (TNF-α; listed as araliadiol): relatively more reduced by araliadiol compared to linoleic acid | NO production [2]: relatively high NO reduction at the lowest concentrations | NO production ([2]; listed as araliadiol): higher NO reduction rate than linoleic acid | Relative IL-1α mRNA expression (IL-1α): tendency toward decreased expression of both IL-1α and TNF-α mRNA with increasing concentration | Relative IL-1α mRNA expression (IL-1α; listed as araliadiol): relatively more reduced by araliadiol compared to linoleic acid | glucose uptake by skeletal muscle cells (skeletal muscle cells): effectively enhance glucose uptake by skeletal muscle cells | PGE2 production [3]: decrease in PGE2 production with increasing concentration | PGE2 production ([3]; listed as araliadiol): decreased PGE2 production with increasing concentration
